Target: T1, recombinant human iNOS (hiNOS) (Homo sapiens, UniProt P35228)
T1 construct: gene NOS2; human iNOS cDNA in pEFIRES-P, overexpressed in HT1080 fibrosarcoma cells; post-mitochondrial supernatant, arginine removed with Dowex-50W; homodimer
Assay: L-[U-14C]-arginine to L-[U-14C]-citrulline conversion assay
Format: biochemical
Conditions: 100 µM, test compound added simultaneously with L-[U-14C]-arginine
From the text: L-[U-14C]-arginine to L-[U-14C]-citrulline conversion assay on recombinant human iNOS (hiNOS)

T1 sequence (P35228 whole entry): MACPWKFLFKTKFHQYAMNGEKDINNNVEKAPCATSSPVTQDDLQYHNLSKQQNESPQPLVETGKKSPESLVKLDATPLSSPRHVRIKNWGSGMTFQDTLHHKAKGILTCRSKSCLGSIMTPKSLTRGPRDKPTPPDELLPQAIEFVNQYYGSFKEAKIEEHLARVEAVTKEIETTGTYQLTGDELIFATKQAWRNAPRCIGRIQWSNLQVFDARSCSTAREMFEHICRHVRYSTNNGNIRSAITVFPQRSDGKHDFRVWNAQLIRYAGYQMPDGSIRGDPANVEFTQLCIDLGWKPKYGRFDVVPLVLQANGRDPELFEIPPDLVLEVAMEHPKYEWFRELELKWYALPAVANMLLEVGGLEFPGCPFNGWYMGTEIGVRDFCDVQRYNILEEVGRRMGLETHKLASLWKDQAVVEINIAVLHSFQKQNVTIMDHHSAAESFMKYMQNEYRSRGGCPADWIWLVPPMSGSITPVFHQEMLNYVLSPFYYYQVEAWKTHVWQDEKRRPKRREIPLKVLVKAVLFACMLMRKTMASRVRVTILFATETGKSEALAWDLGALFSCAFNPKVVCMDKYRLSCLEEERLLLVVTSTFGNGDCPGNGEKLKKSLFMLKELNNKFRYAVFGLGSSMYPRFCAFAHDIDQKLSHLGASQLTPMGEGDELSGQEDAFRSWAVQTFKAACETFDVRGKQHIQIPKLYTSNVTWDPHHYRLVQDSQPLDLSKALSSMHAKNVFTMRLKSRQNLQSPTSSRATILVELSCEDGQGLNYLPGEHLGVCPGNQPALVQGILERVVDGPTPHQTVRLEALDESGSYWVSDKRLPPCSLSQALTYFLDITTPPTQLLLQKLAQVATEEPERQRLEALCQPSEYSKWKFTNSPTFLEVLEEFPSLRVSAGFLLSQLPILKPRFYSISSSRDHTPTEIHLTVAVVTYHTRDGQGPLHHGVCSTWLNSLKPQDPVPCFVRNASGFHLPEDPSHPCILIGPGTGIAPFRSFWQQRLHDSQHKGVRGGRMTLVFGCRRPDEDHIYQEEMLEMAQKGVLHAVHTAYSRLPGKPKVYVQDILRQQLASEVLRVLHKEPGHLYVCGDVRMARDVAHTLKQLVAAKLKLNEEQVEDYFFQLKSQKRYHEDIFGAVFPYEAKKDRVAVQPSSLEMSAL

Compound | % Stimulation of hiNOS activity ^a / t = 0 min ^b
COC(=O)c1ccc(CNC(N)=S)s1 [compound 13, Methyl 5-(thioureidomethyl)thiophene-2-carboxylate] | +62 ± 2%
COC(=O)c1cc(CNC(N)=S)cs1 [compound 25, Methyl 4-(thioureidomethyl)thiophene-2-carboxylate] | +37 ± 27%

Reference: paper PMC6257465, “Synthesis of N-(Methoxycarbonylthienylmethyl)thioureas and Evaluation of Their Interaction with Inducible and Neuronal Nitric Oxide Synthase” (Molecules, 2010)
